The experiment relates to ornithine decarboxylase (ODC). The experiment is described as follows: ODC assay: inhibition of TPA induction of ornithine decarboxylase (retinoid-like activity). Format: biochemical. Particulars: concentration of the test compound which causes 80% inhibition in the ODC assay (TPA-induced ODC). The text has this: The retinoic acid-like activity of these compounds is confirmed through the classic measure of retinoic acid activity involving the effects of retinoic acid on ornithine decarboxylase. The original work on the correlation between retinoic acid and decrease in cell proliferation was done by Verma & Boutwell, Cancer Research, 1977, 37,2196-2201. That reference discloses that ornithine decarboxylase (ODC) activity increased precedent to polyamine biosynthesis. It has been established elsewhere that increases in polyamine synthesis can be correlated or associated with cellular proliferation. Thus, if ODC activity could be inhibited, cell hyperproliferation could be modulated. Although all cases for ODC activity increases are unknown, it is known that 12-0-tetradecanoylphorbol-13-acetate (TPA) induces ODC activity. Retinoic acid inhibits this induction of ODC activity by TPA. […] Activity of exemplary compounds of the present invention in the above-described ODC assay is disclosed in Table 2 which provides the IC80 concentration for the respective exemplary compound. ("IC80 " is that concentration of the test compound which causes 80% inhibition in the ODC assay. By analogy, "IC60, for example, is that concentration of the test compound which causes 60% inhibition in the ODC assay.)
The compound `CCOC(=O)c1ccc(C#Cc2ccc3c(c2)C(C)(C)CC[C@@H]3O[C@@H]2CCCCO2)cc1` (relative stereo) [Compound 13, Ethyl 4-[[5,6,7,8-tetrahydro-5(SR)-(2'(RS)-tetrahydropyranyloxy)-8,8-dimethylnaphth-2-yl]ethynyl]benzoate] gave an IC80 conc of 7.29 nmols.
Under `CCOC(=O)c1ccc(C#Cc2ccc3c(c2)C(C)(C)CC[C@@H]3O[C@H]2CCCCO2)cc1` (relative stereo) [Compound 14] stands 2.80 nmols; under `CCOC(=O)c1ccc(C#Cc2ccc3c(c2)[C@H](O[C@@H]2CCCCO2)CCC3(C)C)cc1` (relative stereo) [Compound 15, Ethyl 4-[[5,6,7,8-tetrahydro-5 (RS)-(2'(RS)-tetrahydropyranyloxy)-8,8-dimethylnaphth-3-yl]ethynyl]benzoate], 0.09 nmols; under `CCOC(=O)c1ccc(C#Cc2ccc3c(c2)[C@H](O[C@H]2CCCCO2)CCC3(C)C)cc1` (relative stereo) [Compound 16, Ethyl 4-[[5,6,7,8-tetrahydro-5(RS)-(2'(SR)-tetrahydropyranyloxy)-8,8-dimethylnaphth-3-yl]ethynyl]benzoate], 0.60 nmols.
On to `CCOC(=O)c1ccc(C#Cc2ccc3c(c2)[C@H](O[C@@H]2CCCCO2)CCC3(C)C)nc1` (relative stereo) [Compound 17, Ethyl 6-[[5,6,7,8-tetrahydro-5(RS)-(2'(RS)-tetrahydropyranyloxy)-8,8-dimethylnaphth-3-yl]ethynyl]nicotinate], for which the IC80 conc was 0.35 nmols.
As for `CCOC(=O)c1ccc(C#Cc2ccc3c(c2)[C@H](O[C@H]2CCCCO2)CCC3(C)C)nc1` (relative stereo) [Compound 18], the figure is 2.20 nmols; as for `CC1(C)CC[C@H](O[C@@H]2CCCCO2)c2ccc(C#Cc3ccc(C(=O)O)cc3)cc21` (relative stereo) [Compound 32, 4-[[5,6,7,8-tetrahydro-5(SR)-(2'(RS)-tetrahydropyranyloxy)-8,8-dimethylnaphth-2-yl]ethynyl]benzoic acid], 4.20 nmols; as for `CC1(C)CC[C@@H](O[C@@H]2CCCCO2)c2cc(C#Cc3ccc(C(=O)O)cc3)ccc21` (relative stereo) [Compound 33], 0.08 nmols.
Under `CC1(C)CC[C@@H](O[C@H]2CCCCO2)c2cc(C#Cc3ccc(C(=O)O)cc3)ccc21` (relative stereo) [Compound 34, 4-[[5,6,7,8-tetrahydro-5(RS)-(2'(SR)-tetrahydropyranyloxy)-8,8-dimethylnaphth-3-yl]ethynyl]benzoic acid] stands 2.30 nmols; under `CC1(C)CC[C@H](O[C@H]2CCCCO2)c2ccc(C#Cc3ccc(C(=O)O)cc3)cc21` (relative stereo) [Compound 35], under 3 nmols.
Under `CC1(C)CC[C@@H](O[C@@H]2CCCCO2)c2cc(C#Cc3ccc(C(=O)O)cn3)ccc21` (relative stereo) [Compound 36] stands 18.70 nmols; under `CCOC(=O)c1ccc(C#Cc2ccc3c(c2)C(OC2CCCCC2)CCC3(C)C)cc1` (stereo not drawn) [Compound 6, Ethyl 4-[(5-cyclohexyloxy-5,6,7,8-tetrahydro-8,8-di-methyl-naphth-3-yl)ethynyl]benzoate], 3.83 nmols; under `CCOC(=O)c1ccc(C#Cc2ccc3c(c2)C(C)(C)CCC3O)cc1` (stereo not drawn) [Compound 9, Ethyl 4-[(5,6,7,8-tetrahydro-5-hydroxy-8,8-dimethyl-naphth-2-yl)ethynyl]benzoate], 0.91 nmols.
As to `CCOC(=O)c1ccc(C#Cc2ccc3c(c2)C(O)CCC3(C)C)cc1` (stereo not drawn) [Compound 10, Ethyl 4-[(5,6,7,8-tetrahydro-5-hydroxy-8,8-dimethylnaphth-3-yl)ethynyl]benzoate], the IC80 conc was 3.18 nmols.
In turn, `CCOC(=O)c1ccc(C#Cc2ccc3c(c2)C(OCOC)CCC3(C)C)cc1` (stereo not drawn) [Compound 12] displayed an IC80 conc of 0.40 nmols.
Under `CC1(C)CCC(O)c2cc(C#Cc3ccc(C(=O)O)cc3)ccc21` (stereo not drawn) [Compound 41, 4-[(5,6,7,8-tetrahydro-5-hydroxy-8,8-dimethylnaphth-3-yl)ethynyl]benzoic acid] stands 9.30 nmols.
Take `CC1(C)CCC(O)c2ccc(C#Cc3ccc(C(=O)O)cc3)cc21` (stereo not drawn) [Compound 42, 4-[(5,6,7,8-tetrahydro-5-hydroxy-8,8-dimethylnaphth-2-yl)ethynyl]benzoic acid]: the IC80 conc is recorded as 0.66 nmols.
`COCOC1CCC(C)(C)c2ccc(C#Cc3ccc(C(=O)O)cc3)cc21` (stereo not drawn) [Compound 43] gave an IC80 conc of 0.81 nmols.
Under `CCOC(=O)c1ccc(C#Cc2ccc3c(c2)C(C)(C)CCC3(C#N)O[Si](C)(C)C)cc1` (stereo not drawn) [Compound 107, Ethyl 4-[(5-cyano-5,6,7,8-tetrahydro-8,8-dimethyl-5-trimethylsiloxynaphth-2-yl)ethynyl]benzoate] stands 1.43 nmols; under `CCOC(=O)c1ccc(C#Cc2ccc3c(c2)C(C)(C)CCC3O[Si](C)(C)C)cc1` (stereo not drawn) [Compound 111, Ethyl 4-[(5,6,7,8-tetrahydro-8,8-dimethyl-5-trimethylsiloxynaphth-2-yl)ethynyl]benzoate], 3.40 nmols.
Consider `CCOC(=O)CC1(O)CCC(C)(C)c2cc(C#Cc3ccc(C(=O)OCC)cc3)ccc21` (stereo not drawn) [Compound 113, Ethyl 4-[(5,6,7,8-tetrahydro-5-hydroxy-8,8-dimethyl-5-carboethoxymethylnaphth-2-yl)ethynyl]benzoate], for which the IC80 conc was 1.33 nmols.
As for `CCOC(=O)CC1(O)CCC(C)(C)c2cc(C#Cc3ccc(C(=O)OCC[Si](C)(C)C)cc3)ccc21` (stereo not drawn) [Compound 117, Trimethylsilylethyl 4-[(5,6,7,8-tetrahydro-5-hydroxy-8,8-dimethyl-5-carboethoxymethylnaphth-2-yl)ethynyl]benzoate], the figure is 8.60 nmols.
On to `CCOC(=O)CC1(O)CCC(C)(C)c2ccc(C#Cc3ccc(C(=O)OCC)cc3)cc21` (stereo not drawn) [Compound 119, Ethyl 4-[(5-hydroxy-8,8-dimethyl-5-carhoethoxymethyl-5,6,7,8-tetrahydronapth-3-yl)ethynyl]benzoate], for which the IC80 conc was found to be 1.0 nmols.
As for `CCOC(=O)c1ccc(C#Cc2ccc3c(c2)C(C)(C)CCC3SC(C)=O)cc1` (stereo not drawn) [Compound 143, Ethyl 4-[(5,6,7,8-tetrahydro-8,8-dimethyl-5-thioacetylnaphth-2-yl)ethynyl]benzoate], the figure is 0.15 nmols.

These data come from US5654469A, “Acetylenes disubstituted with a 5 substituted tetrahydronaphthyl group and with an aryl or heteroaryl groups having retinoid-like biological activity” (Allergan, priority 1996, dated 1997).
